Assay results taken from US20230073777A1, “CYCLIC-AMP RESPONSE ELEMENT BINDING PROTEIN (CBP) AND/OR ADENOVIRAL E1A BINDING PROTEIN OF 300 KDA (P300) DEGRADATION COMPOUNDS AND METHODS OF USE” (CULLGEN (SHANGHAI), INC., priority 2019, published 2023).
Read-outs that look alike come from different tables or passages of the source.

Experiments:
LNCaP cells = experiment: LNCaP cell viability assay (CellTiter-Glo); format: cell-based; conditions: Homo sapiens, 72 h, LNCaP prostate cancer cell viability inhibition, 3 days
How it was run: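 LNCaP cells, 5000/well, exposed to compounds in 12-point 3-fold serial dilution (top 10 μM) for 3 days. Viability by CellTiter-Glo luminescence, normalized to untreated cells; IC50 by least-squares nonlinear regression.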

P300 = P300 (Homo sapiens, UniProt Q09472); experiment: Immunoblotting of P300 protein levels in LNCaP or 22RV1 cells; format: cell-based; design: LNCaP or 22RV1 cells that express CBP/P300 proteins were treated with GNE-781 or the bivalent compounds; endogenous in cells; host or cells: LNCaP (clone FGC) or 22RV1 cells; conditions: read-out: Degradation (10 nM)
How it was run: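 LNCaP or 22RV1 cells treated with compounds for indicated hours, DMSO as negative control. RIPA lysates resolved by SDS-PAGE and immunoblotted for P300 or CBP, tubulin or vinculin as loading control; chemiluminescent bands quantitated.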

[1] = percentage of inhibition of p300 at 10 nM (Table 3)
[2] = percentage of inhibition of p300 at 10 nM (Table 2)

Chain of P300 (Q09472 whole entry): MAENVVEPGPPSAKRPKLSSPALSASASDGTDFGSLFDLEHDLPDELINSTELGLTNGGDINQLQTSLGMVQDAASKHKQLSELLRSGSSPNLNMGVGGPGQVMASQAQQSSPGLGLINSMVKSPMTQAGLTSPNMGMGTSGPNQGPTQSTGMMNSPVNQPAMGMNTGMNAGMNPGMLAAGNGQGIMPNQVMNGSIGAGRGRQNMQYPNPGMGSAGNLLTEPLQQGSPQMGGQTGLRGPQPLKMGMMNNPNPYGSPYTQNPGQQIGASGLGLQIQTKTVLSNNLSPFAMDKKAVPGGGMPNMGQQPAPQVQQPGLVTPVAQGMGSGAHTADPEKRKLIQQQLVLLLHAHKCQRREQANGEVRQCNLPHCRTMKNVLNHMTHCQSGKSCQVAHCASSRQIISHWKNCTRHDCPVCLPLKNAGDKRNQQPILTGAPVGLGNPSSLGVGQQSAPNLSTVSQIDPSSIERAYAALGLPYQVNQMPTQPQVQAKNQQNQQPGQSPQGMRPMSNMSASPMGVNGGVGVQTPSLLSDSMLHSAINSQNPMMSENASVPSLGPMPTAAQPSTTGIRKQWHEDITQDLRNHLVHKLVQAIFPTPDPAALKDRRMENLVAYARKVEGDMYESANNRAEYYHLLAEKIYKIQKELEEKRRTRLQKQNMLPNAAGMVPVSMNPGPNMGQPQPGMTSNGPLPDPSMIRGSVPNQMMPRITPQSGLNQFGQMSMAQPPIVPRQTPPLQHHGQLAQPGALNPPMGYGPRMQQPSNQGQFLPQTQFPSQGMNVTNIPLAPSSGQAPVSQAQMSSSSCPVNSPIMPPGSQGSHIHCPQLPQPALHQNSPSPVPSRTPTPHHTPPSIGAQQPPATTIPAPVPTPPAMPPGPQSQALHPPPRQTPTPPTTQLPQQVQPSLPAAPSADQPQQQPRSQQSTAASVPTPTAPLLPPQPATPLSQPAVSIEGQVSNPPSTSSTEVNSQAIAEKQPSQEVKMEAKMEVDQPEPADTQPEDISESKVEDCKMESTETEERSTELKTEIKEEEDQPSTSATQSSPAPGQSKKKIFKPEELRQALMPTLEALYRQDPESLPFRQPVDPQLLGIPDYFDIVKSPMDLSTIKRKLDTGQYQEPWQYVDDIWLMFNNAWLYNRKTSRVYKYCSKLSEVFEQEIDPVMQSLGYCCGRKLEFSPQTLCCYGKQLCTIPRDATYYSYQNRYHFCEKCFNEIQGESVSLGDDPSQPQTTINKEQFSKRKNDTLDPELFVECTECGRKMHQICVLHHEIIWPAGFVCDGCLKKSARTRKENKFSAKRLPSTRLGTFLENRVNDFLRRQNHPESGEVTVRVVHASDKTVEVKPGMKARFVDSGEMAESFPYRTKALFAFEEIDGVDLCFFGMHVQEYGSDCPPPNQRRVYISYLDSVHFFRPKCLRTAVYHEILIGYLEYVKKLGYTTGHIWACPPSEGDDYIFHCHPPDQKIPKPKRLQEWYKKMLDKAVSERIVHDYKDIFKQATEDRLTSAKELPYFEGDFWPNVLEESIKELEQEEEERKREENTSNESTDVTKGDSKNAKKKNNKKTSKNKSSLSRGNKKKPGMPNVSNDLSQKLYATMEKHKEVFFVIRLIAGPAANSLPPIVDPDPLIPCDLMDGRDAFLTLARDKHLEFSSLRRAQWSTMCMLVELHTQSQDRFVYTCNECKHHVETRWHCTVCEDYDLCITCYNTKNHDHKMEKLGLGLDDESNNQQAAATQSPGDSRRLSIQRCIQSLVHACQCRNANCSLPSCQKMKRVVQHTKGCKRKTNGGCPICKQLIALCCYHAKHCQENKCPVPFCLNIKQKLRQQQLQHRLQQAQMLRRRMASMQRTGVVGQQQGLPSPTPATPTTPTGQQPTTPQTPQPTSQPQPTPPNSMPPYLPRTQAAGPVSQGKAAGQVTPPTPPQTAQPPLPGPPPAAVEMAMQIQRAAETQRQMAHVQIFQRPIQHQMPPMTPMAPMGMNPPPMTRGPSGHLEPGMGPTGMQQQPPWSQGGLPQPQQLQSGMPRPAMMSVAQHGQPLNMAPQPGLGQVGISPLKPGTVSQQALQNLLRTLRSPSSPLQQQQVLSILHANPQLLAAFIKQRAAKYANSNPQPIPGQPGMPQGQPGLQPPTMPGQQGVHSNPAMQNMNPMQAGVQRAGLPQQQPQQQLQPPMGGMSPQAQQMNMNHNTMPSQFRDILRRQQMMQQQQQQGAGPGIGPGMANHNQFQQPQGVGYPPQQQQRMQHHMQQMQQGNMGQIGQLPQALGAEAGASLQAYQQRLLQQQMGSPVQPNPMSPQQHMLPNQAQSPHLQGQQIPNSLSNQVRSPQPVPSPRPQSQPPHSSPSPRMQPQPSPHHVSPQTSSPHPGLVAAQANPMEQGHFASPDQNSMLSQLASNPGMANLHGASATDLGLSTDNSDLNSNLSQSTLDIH

SMILES | IC50 (LNCaP cells; CellTiter-Glo (Table 3)) | inhibition at 0.01 µM (P300; [1]) | IC50 (LNCaP cells; CellTiter-Glo (Table 2)) | inhibition at 0.01 µM (P300; [2]) | inhibition at 0.01 µM (P300)
CC(=O)N1CCc2c(c(N3CCCc4cc(-c5cnn(C)c5)c(C(F)F)cc43)nn2C2CCN(CCCCCCCc3cccc4c3C(=O)N(C3CCC(=O)NC3=O)C4=O)CC2)C1 (stereo not shown) [P-132, 4-(7-(4-(5-Acetyl-3-(7-(difluoromethyl)-6-(1-methyl-1H-pyrazol-4-yl)-3,4-dihydroquinolin-1(2H)-yl)-4,5,6,7-tetrahydro-1H-pyrazolo[4,3-c]pyridin-1-yl)piperidin-1-yl)heptyl)-2-(2,6-dioxopiperidin-3-yl)isoindoline-1,3-dione] | 16.8 nM | 20 to 50% |  |  | 
CC(=O)N1CCc2c(c(N3CCCc4cc(-c5cnn(C)c5)c(C(F)F)cc43)nn2C2CCN(C(=O)CN3CCOC(CCNc4cccc5c4C(=O)N(C4CCC(=O)NC4=O)C5=O)C3)CC2)C1 (stereo not shown) [P-172, 4-((2-(4-(2-(4-(5-Acetyl-3-(7-(difluoromethyl)-6-(1-methyl-1H-pyrazol-4-yl)-3,4-dihydroquinolin-1(2H)-yl)-4,5,6,7-tetrahydro-1H-pyrazolo[4,3-c]pyridin-1-yl)piperidin-1-yl)-2-oxoethyl)morpholin-2-yl)ethyl)amino)-2-(2,6-dioxopiperidin-3-yl)isoindoline-1,3-dione] | 56.9 nM | 20 to 50% |  |  | 
CNC(=O)N1CCc2c(c(N3CCCc4cc(-c5cnn(C)c5)c(C(F)F)cc43)nn2C2CCN(C(=O)CCOCCOCCC(=O)N[C@H](C(=O)N3C[C@H](O)C[C@H]3C(=O)NCc3ccc(-c4scnc4C)cc3)C(C)(C)C)CC2)C1 [P-067, 3-(7-(Difluoromethyl)-6-(1-methyl-1H-pyrazol-4-yl)-3,4-dihydroquinolin-1(2H)-yl)-1-(1-(3-(2-(3-(((S)-1-((2S,4R)-4-hydroxy-2-((4-(4-methylthiazol-5-yl)benzyl)carbamoyl)pyrrolidin-1-yl)-3,3-dimethyl-1-oxobutan-2-yl)amino)-3-oxopropoxy)ethoxy)propanoyl)piperidin-4-yl)-N-methyl-1,4,6,7-tetrahydro-5H-pyrazolo[4,3-c]pyridine-5-carboxamide] | 32 nM | < 20% |  |  | 
CC(=O)N1CCc2c(c(N3CCCc4cc(-c5cnn(C)c5)c(C(F)F)cc43)nn2C2CCN(C(=O)CCCCCCNc3cccc4nnn(C5CCC(=O)NC5=O)c(=O)c34)CC2)C1 (stereo not shown) [P-153, 3-(5-((7-(4-(5-acetyl-3-(7-(difluoromethyl)-6-(1-methyl-1H-pyrazol-4-yl)-3,4-dihydroquinolin-1(2H)-yl)-4,5,6,7-tetrahydro-1H-pyrazolo[4,3-c]pyridin-1-yl)piperidin-1-yl)-7-oxoheptyl)amino)-4-oxobenzo[d] [1,2,3]triazin-3 (4H)-yl)piperidine-2,6-dione] | 3.7 nM | > 80% |  |  | 
CC(=O)N1CCc2c(c(N3CCCc4cc(-c5cnn(C)c5)c(C(F)F)cc43)nn2C2CCN(C(=O)CCCCNc3cccc4nc(C)n(C5CCC(=O)NC5=O)c(=O)c34)CC2)C1 (stereo not shown) [P-154, 3-(5-((5-(4-(5-Acetyl-3-(7-(difluoromethyl)-6-(1-methyl-1H-pyrazol-4-yl)-3,4-dihydroquinolin-1(2H)-yl)-4,5,6,7-tetrahydro-1H-pyrazolo[4,3-c]pyridin-1-yl)piperidin-1-yl)-5-oxopentyl)amino)-2-methyl-4-oxoquinazolin-3(4H)-yl)piperidine-2,6-dione] | > 1000 nM | 20 to 50% |  |  | 
CNC(=O)N1CCc2c(c(N3CCCc4cc(-c5cnn(C)c5)c(C(F)F)cc43)nn2C2CCN(C(=O)CCOCCOCCOCCC(=O)N[C@H](C(=O)N3C[C@H](O)C[C@H]3C(=O)NCc3ccc(-c4scnc4C)cc3)C(C)(C)C)CC2)C1 [P-069, 3-(7-(Difluoromethyl)-6-(1-methyl-1H-pyrazol-4-yl)-3,4-dihydroquinolin-1(2H)-yl)-1-(1-((S)-15-((2S,4R)-4-hydroxy-2-((4-(4-methylthiazol-5-yl)benzyl)carbamoyl)pyrrolidine-1-carbonyl)-16,16-dimethyl-13-oxo-4,7,10-trioxa-14-azaheptadecanoyl)piperidin-4-yl)-N-methyl-1,4,6,7-tetrahydro-5H-pyrazolo[4,3-c]pyridine-5-carboxamide] | 36.1 nM | < 20% |  |  | 
CNC(=O)N1CCc2c(c(N3CCCc4cc(-c5cnn(C)c5)c(C(F)F)cc43)nn2C2CCN(C(=O)CCCCCCNc3cccc4c3n(C)c(=O)n4C3CCC(=O)NC3=O)CC2)C1 (stereo not shown) [P-114, 3-(7-(Difluoromethyl)-6-(1-methyl-1H-pyrazol-4-yl)-3,4-dihydroquinolin-1(2H)-yl)-1-(1-(7-((1-(2,6-dioxopiperidin-3-yl)-3-methyl-2-oxo-2,3-dihydro-1H-benzo[d]imidazol-4-yl)amino)heptanoyl)piperidin-4-yl)-N-methyl-1,4,6,7-tetrahydro-5H-pyrazolo[4,3-c]pyridine-5-carboxamide] | 877 nM | 20 to 50% |  |  | 
CC(=O)N1CCc2c(c(N3CCCc4cc(-c5cnn(C)c5)c(C(F)F)cc43)nn2C2CCN(CCN3CCC(CNc4cccc5c4C(=O)N(C4CCC(=O)NC4=O)C5=O)CC3)CC2)C1 (stereo not shown) [P-143, 4-(((1-(2-(4-(5-acetyl-3-(7-(difluoromethyl)-6-(1-methyl-1H-pyrazol-4-yl)-3,4-dihydroquinolin-1(2H)-yl)-4,5,6,7-tetrahydro-1H-pyrazolo[4,3-c]pyridin-1-yl)piperidin-1-yl)ethyl)piperidin-4-yl)methyl)amino)-2-(2,6-dioxopiperidin-3-yl)isoindoline-1,3-dione] | 1.5 nM |  |  |  | > 80%
CNC(=O)N1CCc2c(c(N3CCCc4cc(-c5cnn(CC(=O)NCCOCCOCCC(=O)N[C@H](C(=O)N6C[C@H](O)C[C@H]6C(=O)NCc6ccc(-c7scnc7C)cc6)C(C)(C)C)c5)c(C(F)F)cc43)nn2C2CCOCC2)C1 [P-075, 3-(7-(Difluoromethyl)-6-(1-((S)-14-((2S,4R)-4-hydroxy-2-((4-(4-methylthiazol-5-yl)benzyl)carbamoyl)pyrrolidine-1-carbonyl)-15,15-dimethyl-2,12-dioxo-6,9-dioxa-3,13-diazahexadecyl)-1H-pyrazol-4-yl)-3,4-dihydroquinolin-1(2H)-yl)-N-methyl-1-(tetrahydro-2H-pyran-4-yl)-1,4,6,7-tetrahydro-5H-pyrazolo[4,3-c]pyridine-5-carboxamide] | > 10000 nM | < 20% |  |  | 

Now from value to compound, other results behind:

IC50 (LNCaP cells; CellTiter-Glo (Table 3)) | inhibition at 0.01 µM (P300; [1]) | IC50 (LNCaP cells; CellTiter-Glo (Table 2)) | inhibition at 0.01 µM (P300; [2]) | SMILES | inhibition at 0.01 µM (P300)
 |  | > 10000 nM | 20 to 50% | CNC(=O)N1CCc2c(c(N3CCCc4cc(-c5cnn(C)c5)c(C(F)F)cc43)nn2C2CCN(C(=O)CCOCCNc3ccc4c(c3)C(=O)N(C3CCC(=O)NC3=O)C4=O)CC2)C1 (stereo not shown) [P-008, 3-(7-(Difluoromethyl)-6-(1-methyl-1H-pyrazol-4-yl)-3,4-dihydroquinolin-1(2H)-yl)-1-(1-(3-(2-((2-(2,6-dioxopiperidin-3-yl)-1,3-dioxoisoindolin-5-yl)amino)ethoxy)propanoyl)piperidin-4-yl)-N-methyl-1,4,6,7-tetrahydro-5H-pyrazolo[4,3-c]pyridine-5-carboxamide] | 
 |  | 669 nM | < 20% | CNC(=O)N1CCc2c(c(N3CCCc4cc(-c5cnn(CC(=O)NCCOCCOCCOCCNc6ccc7c(c6)C(=O)N(C6CCC(=O)NC6=O)C7=O)c5)c(C(F)F)cc43)nn2C2CCOCC2)C1 (stereo not shown) [P-030, 3-(7-(Difluoromethyl)-6-(1-(14-((2-(2,6-dioxopiperidin-3-yl)-1,3-dioxoisoindolin-5-yl)amino)-2-oxo-6,9,12-trioxa-3-azatetradecyl)-1H-pyrazol-4-yl)-3,4-dihydroquinolin-1(2H)-yl)-N-methyl-1-(tetrahydro-2H-pyran-4-yl)-1,4,6,7-tetrahydro-5H-pyrazolo[4,3-c]pyridine-5-carboxamide] | 
 |  | 197 nM | < 20% | CNC(=O)N1CCc2c(c(N3CCCc4cc(-c5cnn(C)c5)c(C(F)F)cc43)nn2C2CCN(C(=O)CCOCCOCCOCCOCCOCCNc3ccc4c(c3)C(=O)N(C3CCC(=O)NC3=O)C4=O)CC2)C1 (stereo not shown) [P-012, 3-(7-(Difluoromethyl)-6-(1-methyl-1H-pyrazol-4-yl)-3,4-dihydroquinolin-1(2H)-yl)-1-(1-(1-((2-(2,6-dioxopiperidin-3-yl)-1,3-dioxoisoindolin-5-yl)amino)-3,6,9,12,15-pentaoxaoctadecan-18-oyl)piperidin-4-yl)-N-methyl-1,4,6,7-tetrahydro-5H-pyrazolo[4,3-c]pyridine-5-carboxamide] | 
 |  | 114 nM | 20 to 50% | CNC(=O)N1CCc2c(c(N3CCCc4cc(-c5cnn(C)c5)c(C(F)F)cc43)nn2C2CCN(C(=O)CCOCCOCCNc3ccc4c(c3)C(=O)N(C3CCC(=O)NC3=O)C4=O)CC2)C1 (stereo not shown) [P-009, 3-(7-(difluoromethyl)-6-(1-methyl-1H-pyrazol-4-yl)-3,4-dihydroquinolin-1(2H)-yl)-1-(1-(3-(2-(2-((2-(2,6-dioxopiperidin-3-yl)-1,3-dioxoisoindolin-5-yl)amino)ethoxy)ethoxy)propanoyl)piperidin-4-yl)-N-methyl-1,4,6,7-tetrahydro-5H-pyrazolo[4,3-c]pyridine-5-carboxamide] | 
122 nM | < 20% |  |  | CNC(=O)N1CCc2c(c(N3CCCc4cc(-c5cnn(C)c5)c(C(F)F)cc43)nn2C2CCN(C(=O)CCOCCOCCOCCOCCNc3cccc4c3C(=O)N(C3CCC(=O)NC3=O)C4=O)CC2)C1 (stereo not shown) [P-054, 3-(7-(Difluoromethyl)-6-(1-methyl-1H-pyrazol-4-yl)-3,4-dihydroquinolin-1(2H)-yl)-1-(1-(1-((2-(2,6-dioxopiperidin-3-yl)-1,3-dioxoisoindolin-4-yl)amino)-3,6,9,12-tetraoxapentadecan-15-oyl)piperidin-4-yl)-N-methyl-1,4,6,7-tetrahydro-5H-pyrazolo[4,3-c]pyridine-5-carboxamide] | 
